Assay results: a melting point compilation (Tetko et al.; mined from patent text by program, amines drawn as free bases though some values may be those of a salt)

SMILES	melting point [°C]
C[C@]1(CN2CCN(C(=O)CSc3ccc(Cl)cc3)CC2)Cn2cc([N+](=O)[O-])nc2O1	142 to 145
CC(C)(C)OC(=O)NC(Cc1ccc(-c2cccc(CNCC(=O)c3ccccc3)c2)cc1)C(=O)O (stereo unspecified)	80
CN1CCC(N(C)c2ncc3ncnc(Nc4ccc(N)c([N+](=O)[O-])c4)c3n2)CC1	242 to 246
COc1cc2nc(SC)c(C#N)c(C)c2cc1OCc1ccccc1	171 to 174
O=C(O)COc1ccc(-c2c3ccccc3cc3sc4ccccc4c23)cc1I	248 to 249
CC(C)C1(CO)Cc2cc(OCC(=O)O)c(Cl)c(Cl)c2C1=O (stereo unspecified)	200 to 202
Oc1ccc2c(c1)C[C@@H](NC[C@H](O)c1ccc(OCc3ccccc3)c(CCOCc3ccccc3)c1)CC2	147 to 150
CCOCn1cnc2c1c(=O)n(C)c(=O)n2C	110 to 112
CCOC(=O)Nc1cc(COC(=O)Oc2ccc(N(CCCl)CCCl)cc2)cc(Nc2c3ccccc3nc3ccccc23)c1	131 to 133
CCOC(=O)c1cn2c(cc(OC)c3ccccc32)n1	175 to 176
O=S1(=O)N=CN(C2CC2)c2c(F)cccc21	151 to 152
O=C(NCCNS(=O)(=O)c1ccc(Oc2ccccc2)cc1)P(=O)(O)O	166 to 169
CSc1nc(NN2CCCCC2)c2ncn(C3OC(CCl)C(O)C3O)c2n1 (stereo unspecified)	213 to 215
CC(O)c1nc(NCCCOc2cccc(CN3CCCCC3)c2)n(C)n1 (stereo unspecified)	67 to 68
CN(c1ccc2ccccc2c1)C(C(=O)O)c1c(Cl)cccc1Cl (stereo unspecified)	144
C=CCc1c(-c2ccc(C#N)cc2)[nH]c2cc(C#N)ccc12	217 to 221
Cc1nc2cc3c(cc2c(=O)n1COC(=O)C(C)(C)C)C(=O)CC3	203 to 205
CN(C)C(=O)c1cncc([N+](=O)[O-])c1	65
CC(C)(C)OC(=O)CN1C(=O)C(NC(=O)OCc2ccccc2)C1CCC(=O)O (stereo unspecified)	118 to 120
CC(C)(C)OC(=O)NC1COCCCC=CC2CC2(C(=O)NS(=O)(=O)C2CC2)NC(=O)C2CC(OC(=O)c3ccccc3)CN2C1=O (stereo unspecified)	135 to 137
CCN(CC)C(=O)n1ccc(S(=O)(=O)c2ccc(Cl)cc2Cl)n1	85 to 86
Cc1cc(-n2ccnc2)c2cccc(OCc3c(Cl)ccc(S(=O)(=O)N4CCCC4C(=O)NCC4CCN(CC(=O)CC(=O)O)CC4)c3Cl)c2n1 (stereo unspecified)	125
Cc1ccn(-c2ncc(C(=O)N3Cc4cccn4Cc4ccccc43)c(C(F)(F)F)n2)n1	202 to 204
Brc1ccc(CCCCn2ccnc2)cc1	40
O=C(O)c1ccc(-c2cccc3cc(Cc4cccc(C(F)(F)F)c4)sc23)cc1	200 to 201
[N-]=[N+]=Nc1ccc(-c2ccc(-c3nc(N)nc(N)n3)cc2)cc1	230

SMILES	melting point [°C]
OC1CC2(CCNC2)c2ccccc21 (stereo unspecified)	155 to 158
CCOC(=O)/C=C/C=C/c1cc2cc(N(C)C)ccc2s1	140 to 142
COc1ccc2ccc(O)c(C3NCCc4ccccc43)c2c1 (stereo unspecified)	126 to 130
CCCCNC(=O)c1ccc2c(c1)[C@H]1OCCN(CCC)[C@@H]1CC2 (relative stereo)	128 to 131
Cc1cc(C)n(-c2nc(-c3ccc(Cl)cc3)c(CCC(=O)N3CCN(CC4CCN(C)CC4)CC3)o2)n1	126 to 127
CC(=O)OCC1OC(n2cnc3c(O)nc(Nc4ccccc4)nc32)C(OC(C)=O)C1OC(C)=O (stereo unspecified)	234 to 235
CCCc1c2c(c(O)c3c(=O)cc(C(=O)O)oc13)CCCC2	260 to 262
Cc1ccc([N+](=O)[O-])c(Cl)c1C#N	106 to 107
Cc1c(Br)cc(Br)c(NC(=O)CBr)c1Br	207 to 209
COc1ccc(-c2cc(=O)n(Cc3ccc(Cl)c(Cl)c3)nc2-c2ccc(OC)cc2)cc1	108 to 110
CCOC(=O)c1cn(C2CC2)c2nc(Sc3ccc(C)cc3)c(F)cc2c1=O	186 to 187
COc1cccc(C(O)CNC(=C[N+](=O)[O-])NCCCl)c1 (stereo unspecified)	127 to 130
COc1ccc(C(=O)n2c(Br)c(Br)c(C#N)c2Br)cc1	86 to 89
O=C(Cn1cc(Cc2ccccc2)cc(NC(=O)OCc2ccccc2)c1=O)NC(Cc1ccccc1)C(=O)C(F)(F)F (stereo unspecified)	127 to 130
CSc1nc2ccccc2c(-c2ccccc2)c1C(=O)N(C)Cc1cc(C(F)(F)F)cc(C(F)(F)F)c1	144 to 145
CC(=O)n1c2ccccc2c2[nH]c(=O)c3nccn3c21	340
CCN(CC)C(=O)ON=C(C(=O)N(C)C)C(C)=NOC	59 to 61
N#Cc1nc(Cl)c(Cl)[nH]1	187 to 189
C[C@@H](NC(=O)c1csc(-c2ccc(C(F)(F)F)cc2)n1)[C@](O)(Cn1cncn1)c1ccc(F)cc1F	167 to 168
FC(F)(F)c1cnc(-n2ccc3ccncc32)c(Cl)c1	88 to 90
Nc1ccccc1C(=O)c1ccc(Cl)cc1	100 to 102
COC(=O)c1cnc(C(=O)OC)c(Cl)c1	36 to 38
CC(=O)C(=O)N1CCC[C@H]1C(=O)O	88 to 89
Clc1cccc2c(C3=CCNCC3)c[nH]c12	197 to 201
CCOC(=O)c1cccc(-n2cccc2)c1	62 to 64

Continued, values first:

melting point [°C]	SMILES
220 to 221	CN(C)c1cccc(-c2nc3c(N[C@H]4[C@@H](C(N)=O)[C@@H]5C=C[C@H]4C5)c(Br)cnc3[nH]2)c1
216 to 217	N#Cc1cc(C(=O)NNC(=O)c2occc2-c2ccccc2)ccc1O
104 to 105	CCOC(=O)C(Cl)C(=O)Nc1ccc(Cl)cc1 (stereo unspecified)
55	O=C(CCl)COc1c(Cl)cc(Cl)cc1Cl
106 to 110	O[C@@H](COc1ccccc1)CN(CCc1ccc(OCc2ccccc2)cc1)C[C@@H](O)COc1ccccc1 (racemic)
224	C=C(C)C=NNC1=NS(=O)(=O)c2ccccc21
176 to 177	Cc1ccc(N2CCN(Cc3n[nH]c4ccccc34)CC2)cc1
121 to 123	CC(C)Oc1cc(CCCOc2nn(Cc3ccccc3)cc2CC(=O)O)n(Cc2ccc(F)cc2Cl)n1
146 to 148	CC(C)n1nc(-c2c(-c3ccccc3)nn3ccc(OCC(=O)NC4CCC(O)CC4)cc23)ccc1=O (stereo unspecified)
178 to 180	CS(=O)(=O)Nc1cccc(OCc2c[nH]cn2)c1
127 to 128	O=C(CCC(=O)N1CCC(c2ccc(F)cc2)CC1)c1ccc2c(c1)CCNCC2
93	Clc1ccccc1-c1cc[nH]n1
119	CCOc1ccc(-c2ccc(C3COC(c4c(F)cccc4F)=N3)cc2)cn1 (stereo unspecified)
228	CS(=O)(=O)NC(=O)c1cc(Oc2c(Cl)cc(Cl)cc2Cl)ccc1[N+](=O)[O-]
115 to 116	Cc1sc(-c2ccco2)nc1COc1ccc(CCl)cc1
92 to 93	COc1ccc(COc2cccc(C=O)c2OCc2ccc(OC)cc2)cc1
144 to 145	O=C(O)COc1cccc2c1CCC(Cn1nc(C(c3ccccc3)c3ccccc3)ccc1=O)C2 (stereo unspecified)
116 to 118	CCCCCS(=O)(=O)NC(=O)/C=C/c1ccc(OCCC2OCCO2)cc1Oc1ncc(C(F)(F)F)cc1Cl
169 to 171	Cn1c(COc2ccc(CC3SC(=O)NC3=O)cc2)nc2ccc(Oc3cccc(NC(=O)Nc4ccc(F)cc4)c3)cc21 (stereo unspecified)
235 to 237	Cc1ncccc1-c1nc(C(F)(F)F)cn1-c1ccc(S(N)(=O)=O)cc1
104 to 106	CC(=O)c1ccc2c(c1)ncn2-c1cccc(C(=NOC(C)C)OC2CCCN(C)C2)c1 (stereo unspecified)
156 to 157	CCOC(=O)c1c(CN(CC)CC)nc2sc3ncccc3c2c1-c1ccc(OC)c(OC)c1
218 to 219	CCOC(=O)[C@H](Cc1ccc(-c2c(C)n(C)c(=O)n(C)c2=O)cc1)NC(=O)c1c(F)cccc1F

melting point [°C]	SMILES
78 to 79	CC(C)N(CCN1C(=O)C(=O)c2ccc(Cl)cc21)C(C)C
178 to 180	CC(C)(C)OC(=O)NC(CSCc1ccc(-c2ccc(-c3ccc4c(c3)OCO4)cc2)cc1)C(=O)O (stereo unspecified)
190 to 192	COc1ccc(-c2csc(Nc3ccc(C)cn3)n2)cc1OC
241	CC(=O)N1CCN(c2cc(-c3cnc4c(c3)N(Cc3cc(Cl)ccc3C(F)(F)F)CCN4)ccn2)CC1
85 to 87	COC(=O)Cc1cc(C(C)=O)ccc1OCc1ccccc1
80 to 85	CCCCc1nc(I)c(C=O)[nH]1
165 to 169	Cc1ccc(S(=O)(=O)N2CCC(c3ccc4c(c3)C(=O)CCCC4)CC2)cc1
164 to 166	CC(=O)n1c(C(=O)O)cc2cc3c(cc21)OCO3
159 to 160	Cc1ccc(-c2cc(C(=O)O)c(=O)n(CC(C)C)n2)cc1F
222 to 224	Cn1c(=O)c2c(nc(C=Cc3cccc(N)c3)n2C)n(C)c1=O
126 to 129	CCCCCCCCCC(=O)Nc1cc(C(=O)N2CCCCC2CO)c2cc[nH]c2c1 (stereo unspecified)
91 to 93	CCC(=CC(CSc1nccn1C)=NO)C(C)[N+](=O)[O-] (stereo unspecified)
123 to 132	CC(C)(C)NC(=O)[C@@H]1CCCN1C(=O)[C@@H](O)[C@H](Cc1ccccc1)NC(=O)[C@H](CC(N)=O)NC(=O)COc1ccc(NC(=O)CNCCN2CCOCC2)cc1
269 to 272	Nc1nc(-n2cc(C(=O)O)c(=O)c3cc(F)c(N4CC(O)C4)c(F)c32)c(F)cc1F
88 to 90	CCOc1ccc2c(c1)C(O)Cc1c(Cl)cccc1S2 (stereo unspecified)
122 to 124	ON=Cc1ccccc1OCc1ccc(Cl)cc1
125 to 127	CCOC(=O)Cn1c(C(=O)NCc2nnc(C)n2-c2sc(CC)cc2C(=O)c2ccccc2Cl)cc2cc(F)ccc21
190	O=C(O)Cc1cccc2c(-c3ccccc3Cl)nccc12
84 to 87	CNc1sc(-c2cccnc2)nc1C
52 to 54	CCCNC(=O)C1(CCCCN2CCC(N3Cc4ccccc4C3=O)CC2)c2ccccc2-c2cccnc21 (stereo unspecified)
175 to 176	COc1ccc(C(=O)NCCCCCCCCNC(=O)c2ccc(OC)cc2)cc1
142 to 143	COc1nc(C)nc(NC(=O)NS(=O)(=O)c2ccccc2C=CCC#N)n1
